The values below are quoted from earlier work in patent US8580300B2, “Pharmaceutical formulation for treating the upper digestive tract” (Dr. Falk Pharma GmbH, priority 2008, dated 2013).

For this data set the following is noted: budesonide resorbed in the stomach/digestive tract.

For `CCCC1O[C@@H]2C[C@H]3[C@@H]4CCC5=CC(=O)C=C[C@]5(C)[C@H]4[C@@H](O)C[C@]3(C)[C@]2(C(=O)CO)O1` (stereo partly drawn) [budesonide, 16,17-(butylidenebis(oxy))-11,21-dihydroxy-(11-β,16-α)-pregna-1,4-diene-3,20-dione], the “share of the absorbed budesonide metabolised by the first-pass effect” value is on record as 90%.
